Key:
[1] = test system: complex II; conditions: cited from earlier work; for concentration to achieve half-maximal inhibition: Drose et al 2011
[2] = test system: ischemia-reperfusion injury; conditions: chemical preconditioning, rats; Hu et al, Hirata et al; cited from earlier work
[3] = test system: succinate accumulation in the ischaemic myocardium; test: Succinate accumulation in the ischaemic myocardium in vivo (LC-MS); conditions: i.v. infusion in vivo, mouse; 30 min ischaemia
Protocol: For the in vivo heart IR model an open-chest, in situ heart model was used^31,32. Male mice (8-10 weeks; Charles River Laboratories, UK) were anaesthetised with sodium pentobarbital (70 mg/kg intraperitoneally (i.p.)), intubated endotracheally and ventilated with 3 cm H2O positive-end expiratory pressure. Adequacy of anaesthesia was monitored using corneal and withdrawal reflexes. Ventilation frequency was kept at 110 breaths per minute with tidal volume between 125-150 μL. A thoracotomy was performed and the heart exposed by stripping the pericardium. A prominent branch of the left anterior descending coronary artery (LAD) was surrounded by a 7-0 Prolene suture that was then passed through a small plastic tube. Ischaemia was induced by tightening the tubing against the heart surface. To assess metabolites during IR in vivo, mice were divided into three groups: 30 min ischaemia, 30 min ischaemia plus 5 min reperfusion and 30 min sham-operation in which the suture was placed but the LAD was not occluded. At the end of each protocol tissue was removed from the at risk and peripheral areas of the heart, selected visually by comparing white versus red tissue, and snap-frozen in liquid nitrogen. Sham-operated tissue was removed from the presumed risk zone. Infarct size was assessed after 30 min of ischaemia followed by 120 min reperfusion using 2% triphenyltetrazolium chloride staining and is expressed as a percentage of the risk zone^33. […] For the LC separation, column A was Sequant Zic-Hilic (150 mm×4.6 mm, internal diameter 3.5 μm) with a guard column (20 mm×2.1 mm 3.5 μm) from HiChrom, Reading, UK. […] (150 mm×2.1 mm i.d. 3.5 μm) with guard column (20 mm×2.1 mm i.d. […]) from HiChrom, Reading, UK. […] Spectra were analysed using both targeted and untargeted approaches. For the targeted approach spectra were analysed using XCalibur Qual Browser and XCalibur Quan Browser softwares (Thermo Scientific) by referencing to an internal library of compounds. […] The arrays of spectra were then statistically analysed using the functions explore.data and univariate of the R package mum a^40.

[4] = test system: heart, simulated ischemia-reperfusion injury; conditions: Wojtovich et al 2009; mKATP channel dependent mechanism; cited from earlier work
[5] = test system: ischaemic succinate accumulation (GABA shunt); test: Ex vivo perfused mouse heart, no flow ischaemia: succinate abundance (LC-MS); conditions: 30 min no flow ischaemia, vigabatrin 100, 300, 700 μM
Protocol: FIG. 9: Effect of GABA transaminase inhibition by vigabatrin on GABA shunt and CAC metabolites in the ischaemic myocardium. Perfused mouse hearts were subjected to 30 min no flow ischaemia±continuous infusion of vigabatrin (Vig; 100, 300, and 700 μM) 10 min prior to ischaemia. Heart tissue was snap frozen and a, GABA and b, succinate abundance quantified relative to normoxic levels by LC-MS. n=3, * p<0.05.
Mice were heparinised (200 U i.p.) and anaesthetised with sodium pentobarbital (100 mg/kg i.p.). […]
Equal amounts wet weight murine tissue were lysed in 250 μL extraction solution (ES; 30% acetonitrile, 50% methanol and 20% water) per 10 mg tissue in Precellysis 24 vials, following the manufacturer's instructions. […] For the LC separation, column A was Sequant Zic-Hilic (150 mm×4.6 mm, internal diameter 3.5 μm) with a guard column (20 mm×2.1 mm 3.5 μm) from HiChrom, Reading, UK. […] Gradient: 0-3 min 80% B, 25 min 20% B, 26 min 80% B, 36 min 80% B. Column B was sequant Zic-pHilic (150 mm×2.1 mm i.d. 3.5 μm) with guard column (20 mm×2.1 mm i.d. 3.5 Mm) from HiChrom, Reading, UK. […] Spectra were analysed using both targeted and untargeted approaches. For the targeted approach spectra were analysed using XCalibur Qual Browser and XCalibur Quan Browser softwares (Thermo Scientific) by referencing to an internal library of compounds. […]

## O=C(O)CC[N+](=O)[O-] [3-nitropropionate]
[1]
  reversibility of complex II inhibition: irreversible
[2]
  ischemia-reperfusion injury: reduced ischemia-reperfusion injury

## NC(=O)c1ncn([C@@H]2O[C@H](CO)[C@@H](O)[C@H]2O)c1N [AICAR, 5-amino-1-β-D-ribofuranosyl-imidazole-4-carboxamide]
[3]
  succinate accumulation in the ischaemic myocardium: decreased ischaemic succinate levels

## NOCC(=O)O [AOA, aminooxyacetate]
[3]
  succinate accumulation in the ischaemic myocardium: decreased ischaemic succinate levels

## O=C(CC(=O)C(F)(F)F)c1cccs1 [TTFA, 2-thenoyltrifluoroacetone]
[1]
  reversibility of complex II inhibition: irreversible

## COc1[nH]c(=O)c(C(=O)[C@@H](C)C[C@H](C)[C@@H](Cl)CCl)c(O)c1OC [atpennin A5]
[1]
  concentration to achieve half-maximal inhibition: nanomolar levels
  reversibility of complex II inhibition: irreversible
[4]
  protection of the heart against simulated ischemia-reperfusion injury: protects the heart against simulated ischemia-reperfusion injury

## O=C(O)CC(=O)O [malonate]
[1]
  concentration to achieve half-maximal inhibition: millimolar levels

## C=CC(N)CCC(=O)O (stereo not shown) [vigabatrin]
[5]
  ischaemic succinate accumulation: did not decrease ischaemic succinate accumulation

Source: US10603298B2, “Succinate dehydrogenase inhibitors (SDHi's)” (Medical Research Council, priority 2014, dated 2020)
